# Assay results: patent US20020137929A1, “1 - (3-heterocyclylphenyl) isothiourea, -isourea, -guanidine and -amidine herbicidal agents” (Intellectual Property Department, BASF Aktiengesellschaft, priority 1998, published 2002)
# Legend:
# [1] = test system: TRZAWR (Wheat, Winter, cv Riband); assay: Preemergence herbicidal evaluation; format: in vivo, Triticum aestivum; conditions: preemergence, rated 4-5 weeks after treatment, 0-9 scale
# In short: (§1)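 Scores use a 0–9 visual scale covering stand, vigor, malformation, size and chlorosis relative to controls, rated four to five weeks after treatment. Before emergence, soil-planted seeds were sprayed with compound in aqueous acetone at roughly 0.0156–0.500 kg/ha and held in the greenhouse.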
# [2] = test system: CASOB (Sicklepod); assay: Postemergence herbicidal evaluation; format: in vivo, Cassia obtusifolia; conditions: postemergence
# In short: (§2)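 Scores (0–9) reflect plant stand, vigor, malformation, size, chlorosis and general appearance relative to control, read 4 to 5 weeks after treatment and averaged where tests were repeated. Application: about 0.0156–0.500 kg/ha sprayed at 40 psi onto two-week seedlings.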
# [3] = test system: GLXMAW (Soybean, Williams); assay: Preemergence herbicidal evaluation; format: in vivo, Glycine max, (L.) Merr. cv Williams; conditions: preemergence, rated 4-5 weeks after treatment, 0-9 scale
# In short: as §1
# [4] = test system: CHEAL (Lambsquarters, Common); assay: Postemergence herbicidal evaluation; format: in vivo, Chenopodium album; conditions: postemergence
# In short: as §2
# [5] = test system: CYPSE (Flatsedge); assay: Postemergence weed control under flooded paddy conditions; format: in vivo, Cyperus serotinus; conditions: postemergence weeds, rated 3 to 4 weeks after treatment
# In short: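 Flood-water application, about 0.0313–0.500 kg/ha a.i. in aqueous/acetone 50/50 v/v; water depth 1.5–3 cm throughout. Weeds 3–5 cm, rice 1.5–2.5 leaf. Greenhouse; 0–9 visual rating vs control at 3–4 wk.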
# [6] = test system: ECHCG (Barnyardgrass); assay: Postemergence herbicidal evaluation; format: in vivo, Echinochloa crus-galli; conditions: postemergence
# In short: as §2
# [7] = test system: ORYSAT (Rice, Tebonnet); assay: Preemergence herbicidal evaluation; format: in vivo, Oryza sativa, (L.) Tebonnet; conditions: preemergence, rated 4-5 weeks after treatment, 0-9 scale
# In short: as §1
# [8] = test system: GALAP (Galium); assay: Preemergence herbicidal evaluation; format: in vivo, Galium aparine; conditions: preemergence, rated 4-5 weeks after treatment, 0-9 scale
# In short: as §1
# [9] = test system: ZEAMX (Corn, Field); assay: Preemergence herbicidal evaluation; format: in vivo, Zea mays; conditions: preemergence, rated 4-5 weeks after treatment, 0-9 scale
# In short: as §1
# [10] = test system: ORYSAT (Rice, Tebonnet); assay: Postemergence herbicidal evaluation; format: in vivo, Oryza sativa, (L.) Tebonnet; conditions: postemergence
# In short: as §2
# [11] = test system: MOOVA (Monochoria); assay: Preemergence weed control under flooded paddy conditions; format: in vivo, Monochoria vaginalis; conditions: rated 3-4 weeks after treatment
# In short: (§3)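 Seeds or propagules sown in top 0.5 cm of silt loam soil, flooded 1.5 to 3 cm above surface throughout. Compound in 50/50 v/v aqueous/acetone pipetted into flood water at about 0.0313 to 0.500 kg/ha. Visual 0-9 rating versus control after three to four weeks in greenhouse.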
# [12] = test system: SAGPY (Arrowhead (Pygmaea)); assay: as above; format: in vivo, Sagittaria pygmaea; conditions: rated 3-4 weeks after treatment
# In short: as §3
# [13] = test system: SETVI (Foxtail, Green); assay: Preemergence herbicidal evaluation; format: in vivo, Setaria viridis; conditions: preemergence, rated 4-5 weeks after treatment, 0-9 scale
# In short: as §1
# [14] = test system: CYPIR (Rice Flatsedge); assay: Preemergence weed control under flooded paddy conditions; format: in vivo, Cyperus iria; conditions: rated 3-4 weeks after treatment
# In short: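 First, seeds or propagules go into the top 0.5 cm of silt loam; next, water is held 1.5 to 3 cm over the soil; then compound (50/50 acetone/water) is pipetted into it at about 0.0313 to 0.500 kg/ha; finally plants are rated visually 0-9 after three to four weeks.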
smiles,measurement,setting,value
"C=CCN1C(=O)C(CC(=O)NC)SC1=Nc1cc(-n2c(=O)cc(C(F)(F)F)n(C)c2=O)c(F)cc1Cl (centres unmarked) [Compound 84, 3-Allyl-2-{{2-chloro-5-[3,6-dihydro-3-methyl-2,6-dioxo-4-(trifluoromethyl)-1(2H)-pyrimidinyl]-4-fluorophenyl}imino}-N-methyl-4-oxo-5-thiazolidineacetamide]",TRZAWR rating,[1]; 0.0156 kg/ha,0.0
same,TRZAWR rating,[1]; 0.0313 kg/ha,0.0
same,TRZAWR rating,[1]; 0.0625 kg/ha,0.0
same,TRZAWR rating,[1]; 0.1250 kg/ha,4.0
same,TRZAWR rating,[1]; 0.2500 kg/ha,6.0
same,TRZAWR rating,[1]; 0.5000 kg/ha,9.0
same,CASOB herbicidal rating,[2]; rate 0.0156 kg/ha,0.0
same,CASOB herbicidal rating,[2]; rate 0.0313 kg/ha,0.0
same,CASOB herbicidal rating,[2]; rate 0.0625 kg/ha,0.0
same,CASOB herbicidal rating,[2]; rate 0.1250 kg/ha,3.0
same,GLXMAW rating,[3]; 0.0156 kg/ha,0.0
same,GLXMAW rating,[3]; 0.0313 kg/ha,0.0
same,GLXMAW rating,[3]; 0.0625 kg/ha,0.0
same,GLXMAW rating,[3]; 0.1250 kg/ha,3.0
same,GLXMAW rating,[3]; 0.2500 kg/ha,5.0
same,GLXMAW rating,[3]; 0.5000 kg/ha,7.0
same,CHEAL herbicidal rating,[4]; rate 0.0156 kg/ha,6.0
same,CHEAL herbicidal rating,[4]; rate 0.0313 kg/ha,7.0
same,CHEAL herbicidal rating,[4]; rate 0.0625 kg/ha,9.0
same,CHEAL herbicidal rating,[4]; rate 0.1250 kg/ha,9.0
same,Herbicidal rating CYPSE,[5]; Rate 0.0313 kg/ha,0.0
same,Herbicidal rating CYPSE,[5]; Rate 0.0625 kg/ha,3.0
same,Herbicidal rating CYPSE,[5]; Rate 0.1250 kg/ha,9.0
same,Herbicidal rating CYPSE,[5]; Rate 0.2500 kg/ha,9.0
same,ECHCG herbicidal rating,[6]; rate 0.0156 kg/ha,0.0
same,ECHCG herbicidal rating,[6]; rate 0.0313 kg/ha,0.0
same,ECHCG herbicidal rating,[6]; rate 0.0625 kg/ha,0.0
same,ECHCG herbicidal rating,[6]; rate 0.1250 kg/ha,0.0
same,ORYSAT rating,[7]; 0.0156 kg/ha,0.0
same,ORYSAT rating,[7]; 0.0313 kg/ha,0.0
same,ORYSAT rating,[7]; 0.0625 kg/ha,0.0
same,ORYSAT rating,[7]; 0.1250 kg/ha,0.0
same,ORYSAT rating,[7]; 0.2500 kg/ha,3.0
same,ORYSAT rating,[7]; 0.5000 kg/ha,9.0
same,GALAP rating,[8]; 0.0156 kg/ha,0.0
same,GALAP rating,[8]; 0.0313 kg/ha,0.0
same,GALAP rating,[8]; 0.0625 kg/ha,0.0
same,GALAP rating,[8]; 0.1250 kg/ha,0.0
same,GALAP rating,[8]; 0.2500 kg/ha,5.0
same,GALAP rating,[8]; 0.5000 kg/ha,5.0
same,ZEAMX rating,[9]; 0.0156 kg/ha,0.0
same,ZEAMX rating,[9]; 0.0313 kg/ha,0.0
same,ZEAMX rating,[9]; 0.0625 kg/ha,0.0
same,ZEAMX rating,[9]; 0.1250 kg/ha,5.0
same,ZEAMX rating,[9]; 0.2500 kg/ha,8.0
same,ZEAMX rating,[9]; 0.5000 kg/ha,9.0
same,ORYSAT herbicidal rating,[10]; rate 0.0156 kg/ha,0.5
same,ORYSAT herbicidal rating,[10]; rate 0.0313 kg/ha,1.0
same,ORYSAT herbicidal rating,[10]; rate 0.0625 kg/ha,1.5
same,ORYSAT herbicidal rating,[10]; rate 0.1250 kg/ha,3.0
same,MOOVA herbicidal effect rating,[11]; 0.0313 kg/ha,9.0
same,MOOVA herbicidal effect rating,[11]; 0.0625 kg/ha,9.0
same,MOOVA herbicidal effect rating,[11]; 0.1250 kg/ha,9.0
same,MOOVA herbicidal effect rating,[11]; 0.2500 kg/ha,9.0
same,SAGPY herbicidal effect rating,[12]; 0.0313 kg/ha,2.0
same,SAGPY herbicidal effect rating,[12]; 0.0625 kg/ha,6.0
same,SAGPY herbicidal effect rating,[12]; 0.1250 kg/ha,7.0
same,SAGPY herbicidal effect rating,[12]; 0.2500 kg/ha,9.0
same,SETVI rating,[13]; 0.0156 kg/ha,0.0
same,SETVI rating,[13]; 0.0313 kg/ha,0.0
same,SETVI rating,[13]; 0.0625 kg/ha,0.0
same,SETVI rating,[13]; 0.1250 kg/ha,3.0
same,SETVI rating,[13]; 0.2500 kg/ha,9.0
same,SETVI rating,[13]; 0.5000 kg/ha,9.0
same,CYPIR herbicidal effect rating,[14]; 0.0313 kg/ha,3.0
same,CYPIR herbicidal effect rating,[14]; 0.0625 kg/ha,7.0
same,CYPIR herbicidal effect rating,[14]; 0.1250 kg/ha,9.0
same,CYPIR herbicidal effect rating,[14]; 0.2500 kg/ha,9.0
